Measurements as given in PMC4394546, “Discovery of Benzo[f]indole-4,9-dione Derivatives as New Types of Anti-Inflammatory Agents” (International Journal of Molecular Sciences, 2015).

Columns and labels:
[1] = In vitro cytotoxicity against SF-268 cells; type: cell-based; conditions: human, SF-268 CNS cancer cells; 4 μg/mL; read-out: Cytotoxicity (% survival rate), SF-268
Protocol: (§1) These benzo[f]indole-4,9-dione derivatives were evaluated in vitro against a panel of cell lines consisting of MCF7 (breast), NCI-H460 (lung), and SF-268 (CNS) as described previously. […] Results from Table 2 indicated compounds 15 and 16 were cytotoxic and their IC50 against three cancer cells and a normal cell, Detroit 551, were shown in Table 3.

SF-268 (CNS) = assay: In vitro cytotoxicity against SF-268 cells; type: cell-based; conditions: Homo sapiens, SF-268; mean ± standard deviation, three experiments
Protocol: as §1

NCI-H460 (lung) = assay: In vitro cytotoxicity against NCI-H460 cells; type: cell-based; conditions: Homo sapiens, NCI-H460; mean ± standard deviation, three experiments
Protocol: as §1

[2] = In vitro cytotoxicity against NCI-H460 cells; type: cell-based; conditions: human, NCI-H460 lung cancer cells; 4 μg/mL; read-out: Cytotoxicity (% survival rate), NCI-H460
Protocol: as §1

Detroit 551 = assay: In vitro cytotoxicity against normal cell Detroit 551; type: cell-based; conditions: Homo sapiens, mean ± standard deviation, three experiments
Protocol: as §1

[3] = In vitro cytotoxicity against MCF7 cells; type: cell-based; conditions: human, MCF7 breast cancer cells; 4 μg/mL; read-out: Cytotoxicity (% survival rate), MCF7
Protocol: as §1

MCF7 (breast) = assay: In vitro cytotoxicity against MCF7 cells; type: cell-based; conditions: Homo sapiens, MCF7; mean ± standard deviation, three experiments
Protocol: as §1

[4] = test system: LPS-induced PGE2 production; parameters: method as in PMID 22161217; conditions: read-out: Inhibition of LPS-induced PGE2 production, IC50; cited from earlier work
[5] = test system: LPS-induced Raw 264.7 cells; parameters: method as in PMID 23232148; conditions: cited from earlier work
[6] = test system: LPS-induced Raw 264.7 cells; parameters: method as in PMID 23232148; conditions: cited from earlier work; remark: listed apart in the source
K562 cell = test system: K562 cell; parameters: method as in PMID 20591678; conditions: read-out: IC50 against the growth of K562 cell; cited from earlier work
[7] = test system: fMLF-activated human neutrophils; assay: Superoxide anion generation in fMLF-activated human neutrophils (ferricytochrome c reduction); type: cell-based; conditions: Neutrophil, mean ± SEM (n = 3), read-out: Superoxide Anion (IC50, concentration necessary for 50% inhibition)
Protocol: (§2) Blood was taken from healthy human donors (20–30 years old) by venipuncture, using a protocol approved by the institutional review board at Chang Gung Memorial Hospital. Neutrophils were isolated with a standard method of dextran sedimentation prior to centrifugation in a Ficoll Hypaque gradient and hypotonic lysis of erythrocytes.
(§3) Superoxide generation and elastase release were carried out according to the procedures described previously. Neutrophils (6 × 10^5/mL) were equilibrated at 37 °C for 2 min and incubated with compounds for 5 min. Neutrophils were then activated by fMLF (100 nM) in the pretreatment of cytochalasin B (1 μg/mL for superoxide generation and 0.5 μg/mL for elastase release) for 10 min. Superoxide anion production was assayed by monitoring the superoxide dismutase-inhibitable reduction of ferricytochrome c. Elastase release was performed using MeO-Suc-Ala-Ala-Pro-Valp-nitroanilide as the elastase substrate.

[8] = test system: fMLF-activated human neutrophils; assay: Neutrophil elastase release in fMLF-activated human neutrophils; type: cell-based; conditions: for IC50: Homo sapiens, Neutrophil, fMLF-activated human neutrophils, mean ± SEM (n = 3), read-out: Elastase Release (IC50, concentration necessary for 50% inhibition)
Protocol: as §2, §3

[Ca^2+]i = fMLF-induced intracellular calcium mobilization in human neutrophils (fluo-3 AM); type: cell-based; conditions: Figure 3
Protocol: as §2
Neutrophils were loaded with fluo-3 AM (2 μM) at 37 °C for 45 min. Cells were preincubated with compounds for 5 min, and then activated by fMLF (100 nM). The change in fluorescence was monitored using a Hitachi F-4500 spectrofluorometer (Tokyo, Japan). The excitation wavelength was 488 nm, and the emission wavelength was 520 nm.

Akt (S473) = assay: Western analysis of fMLF-induced Akt phosphorylation in human neutrophils; type: cell-based; conditions: fMLF-activated human neutrophils; Figure 2B
Protocol: as §2
(§4) Neutrophils were pretreated with compounds for 5 min before being stimulated with fMLF at 37 °C. The reaction was stopped by adding 5 × Laemmli’s sample buffer. Proteins derived from whole-cell lysates were separated by SDS-polyacrylamide gel electrophoresis (PAGE) using polyacrylamide gels and blotted onto nitrocellulose membranes. Immunoblotting was performed using the indicated antibodies and horseradish peroxidase (HRP)-conjugated secondary anti-rabbit antibodies (Cell Signaling Technology, Beverly, MA, USA). The immunoreactive bands were visualized by an enhanced chemiluminescence system (Amersham Biosciences, Bucks, UK) and detected by Ultraviolet Product (UVP) imaging system (Upland, CA, USA).

human neutrophils = assay: Cytotoxicity in human neutrophils by lactate dehydrogenase (LDH) release; type: cell-based
Text: The action mechanisms of 10 in human neutrophils were further investigated. Human neutrophil activations, such as respiratory burst and degranulation, are regulated by Akt and calcium signal pathways. Therefore, calcuim and Akt are considered as therapeutic target for developing anti-inflammatory agents.
as §2

Src (Src family Y416) = assay: Western analysis of fMLF-induced Src phosphorylation in human neutrophils; type: cell-based; conditions: fMLF-activated human neutrophils; Figure 2A
Protocol: as §2, §4

alveolar macrophages [9] = test system: alveolar macrophages; parameters: method as in PMID 10188987; conditions: cited from earlier work
alveolar macrophages [10] = test system: alveolar macrophages; parameters: method as in PMID 10188987; conditions: cited from earlier work; remark: listed apart in the source
[11] = test system: superoxide anion generation; parameters: method as in PMID 22510297; conditions: cited from earlier work

Molecule | viability at 4 μg/mL [1] [%] | viability at 4 μg/mL [2] [%] | viability at 4 μg/mL [3] [%] | IC50 [7] [µM] | melting point [°C] | IC50 [8] [µM] | also measured
CC[C@@]1(O)C(=O)OCc2c1cc1n(c2=O)Cc2cc3ccccc3nc2-1 [CPT, camptothecin, reference compound] | 25 | 1 | 33 |  |  |  | IC50 (SF-268 (CNS)): 0.19 ± 0.006 µM; IC50 (NCI-H460 (lung)): 0.03 ± 0.003 µM; IC50 (Detroit 551): 0.99 ± 0.09 µM; IC50 (MCF7 (breast)): 0.57 ± 0.03 µM
COc1ccc(-c2nc3c4ccccc4c4occc4c3[nH]2)cc1 [Compound 2, 2-(4-methoxyphenyl)furo[3',2':3,4]naphtho[1,2-d]imidazole] |  |  |  |  |  |  | IC50 [4]: 0.047 µM
COc1ccc(OC2=CC(=O)C(=O)c3ccccc32)cc1 [Compound 4, 4-(4-methoxyphenoxy)naphthalene-1,2-dione] |  |  |  |  |  |  | Inhibition of NO released [5]: able to inhibit; Inhibition of TNF-α released [6]: able to inhibit
O=C1c2ccccc2/C(=N/O)c2ccoc21 [Compound 5, (Z)-4-(hydroxyimino)naphtho[2,3-b]furan-9(4H)-one] |  |  |  |  |  |  | IC50 (K562 cell): 0.82 µM
O=C1c2ccccc2C(=O)c2c1ccn2Cc1ccccc1 [Compound 8, 1-Benzyl-1H-benzo[f]indole-4,9-dione] | 103 | 96 | 99 | 16.1 ± 1.87 | 173 to 174 | > 30 | 
Cc1cc2c(n1Cc1ccccc1)C(=O)c1ccccc1C2=O [Compound 9, 1-Benzyl-2-methyl-1H-benzo[f]indole-4,9-dione] | 106 | 104 | 105 | 14 ± 4.4 | 139 to 140 | > 30 | 
O=C1c2ccccc2/C(=N/O)c2ccn(Cc3ccccc3)c21 [Compound 10, (Z)-1-Benzyl-4-(hydroxyimino)-1H-benzo[f]indol-9(4H)-one] | 106 | 110 | 110 | 2.74 | 202 to 203 | 2.78 | fMLF-induced mobilization of [Ca^2+]i ([Ca^2+]i): inhibited; fMLF-induced phosphorylation of Akt (S473) (Akt (S473)): inhibited; Cytotoxicity in human neutrophils (LDH release) (human neutrophils; 30 μM, data not shown): showed no cytotoxicity effects; fMLF-induced phosphorylation of Src (Src family Y416) (Src (Src family Y416)): did not alter
Cc1cc2c(n1Cc1ccccc1)C(=O)c1ccccc1C2=NO [Compound 11, 1-Benzyl-4-(hydroxyimino)-2-methyl-1H-benzo[f]indol-9(4H)-one] | 102 | 110 | 104 | 7.47 ± 1.39 | 259 to 260 | > 30 | 
CC(=O)c1c2c(n(Cc3ccccc3)c1C)C(=O)c1ccccc1C2=O [Compound 12, 3-Acetyl-1-benzyl-2-methyl-1H-benzo[f]indole-4,9-dione] | 115 | 88 | 78 | > 30 | 135 to 136 | > 30 | 
CC(=NO)c1c2c(n(Cc3ccccc3)c1C)C(=O)c1ccccc1C2=O [Compound 13, 1-Benzyl-3-[1-(hydroxyimino)ethyl]-2-methyl-1H-benzo[f]indole-4,9-dione] | 109 | 111 | 106 | 10.5 ± 0.52 | 204 to 205 | 14.7 ± 2.44 | 
CON=C(C)c1c2c(n(Cc3ccccc3)c1C)C(=O)c1ccccc1C2=O [Compound 14, 1-Benzyl-3-[1-(methoxyimino)ethyl]-2-methyl-1H-benzo[f]indole-4,9-dione] | 112 | 108 | 104 | > 30 | 168 to 169 | > 30 | 
CCN(CC)CCNC(=O)c1ccc(/N=C2/c3ccccc3C(=O)c3c2ccn3Cc2ccccc2)cc1 [Compound 15, (Z)-4-(1-benzyl-9-oxo-1H-benzo[f]indol-4(9H)-ylideneamino)-N-[2-(diethylamino)ethyl]benzamide] | 120 | 31 | 82 |  | 152 to 153 |  | Cytotoxicity in human neutrophils (LDH release) (human neutrophils; 3, 10 and 30 μM): showed cytotoxicity effects; IC50 (SF-268 (CNS)): 27.4 ± 0.39 µM; IC50 (NCI-H460 (lung)): 3.16 ± 0.13 µM; IC50 (Detroit 551): 7.68 ± 0.58 µM; IC50 (MCF7 (breast)): 4.98 ± 0.15 µM
CCN(CC)CCNC(=O)c1ccc(/N=C2/c3ccccc3C(=O)c3c2cc(C)n3Cc2ccccc2)cc1 [Compound 16, (Z)-4-(1-benzyl-2-methyl-9-oxo-1H-benzo[f]indol-4(9H)-ylideneamino)-N-[2-(diethylamino)ethyl]benzamide] | 106 | 18 | 57 | 0.52 ± 0.11 | 138 to 139 |  | IC50 (SF-268 (CNS)): 25.8 ± 1.66 µM; Effect of compound alone on elastase release ([8]; human neutrophils, table dash with footnote b = alone induced elastase release): induced NE release of human neutrophils; IC50 (NCI-H460 (lung)): 3.23 ± 0.34 µM; IC50 (Detroit 551): 4.78 ± 0.57 µM; IC50 (MCF7 (breast)): 4.95 ± 0.21 µM
O=c1cc(N2CCOCC2)oc2c(-c3ccccc3)cccc12 [LY294002, reference compound] |  |  |  | 1.36 ± 0.33 |  | 2.21 ± 0.45 | 
CC1(C)CCC2=C(O1)c1ccccc1C(=O)C2=O [β-LAPA, β-lapachone] |  |  |  |  |  |  | Inhibition of expression of PGE2 (alveolar macrophages [9]): able to inhibit; Inhibition of expression of nitric oxide (NO) (alveolar macrophages [10]): able to inhibit
benzo[a]furo[2,3-c]phenazinecarboxylic acid [Compound 3] |  |  |  |  |  |  | Inhibition of superoxide anion generation [11]: strongly inhibited superoxide anion generation
